Assays:
[1] = system: Phosphodiesterase (PDE) von Humanthrombozyten; experiment: PDE inhibition (PDE assay), enzyme from human platelets, 3H-cAMP substrate; type: biochemical; settings: 1 µmol/l 3H-cAMP as substrate, linear regression, read-out: PDE-Hemmung (IC50 in µmol/l) Thrombozyten
Description: (§1) Beispielsweise wurden die Verbindungen • A = 4,7-Dimorpholino-6-phenyl-2-piperazino-pteridin, • B = 4-Morpholino-7-(1-oxidothiomorpholino)-2-piperazino-6-phenyl-pteridin, • C = 7-Benzylamino-6-phenyl-2-piperazino-4-thiomorpholino- pteridin, • D = 7-Dimethylamino-6-phenyl-2-piperazino-4-pyrrolidino- pteridin und • E = 7-Benzylamino-4-(N-methyl-2'-hydroxyethylamino)-2-piperazino-pteridin auf ihre Hemmwirkung auf die Phosphodiesterase (PDE) von Tumorzellen und von Humanthrombozyten in vitro in Anlehnung an die von Pöch et al. beschriebenen Methode wie folgt untersucht (siehe Naunyn-Schmiedebergs Arch. Pharmak.
(§2) Die Phosphodiesterase wurde aus B16 Melanomgewebe von Mäusen durch Zentrifugation des Gewebehomogenates bei 5.000 x g (15 min. 4°C) gewonnen. Die Homogenisation der Gewebe erfolgte durch wiederholtes Frieren/Auftauen und Homogenisation nach Potter-Elvehjem bzw. durch Ultraschall. Der die PDE enthaltende Homogenat-Überstand wurde portioniert und bei -25°C tiefgefroren.
Die Gewinnung der Phosphordiesterase aus Humanthrombozyten erfolgte in gleicher Weise.
(§3) Die Bestimmung der PDE-Hemmung durch die Prüfsubstanzen erfolgte mit 1 µmol/l ^3H-cAMP als Substrat. Die PDE-Hemmung wurde durch Messung des Abbaus des eingesetzten Substrats ^3H-cAMP zu ^3H-AMP im Vergleich zur Kontrolle ohne Prüfsubstanz erfaßt.
(§4) Das gebildete ^3H-AMP wurde durch eine Zinksulfat-Bariumhydroxid-Fällung vom verbliebenen ^3H-CAMP abgetrennt.

[2] = target: Phosphodiesterase aus B16 Melanomgewebe von Mäusen; experiment: PDE inhibition (PDE assay), enzyme from B16 melanoma tissue, 3H-cAMP substrate; type: biochemical; settings: PDE from mouse B16 melanoma tissue; 1 µmol/l 3H-cAMP as substrate; linear regression; read-out: PDE-Hemmung (IC50 in µmol/l) B16-Tumorzellen
Description: as §1, §2, §3, §4

Mäusen = experiment: Orientating acute toxicity in mice, single oral dose; type: in vivo; settings: observation time 14 days; for Orientierende aktute Toxizität (Tiere gestorben): single oral dose of 250 mg, animals dead of animals treated; for Orientierende aktute Toxizität: single oral dose
Description: Die orientierende akute Toxizität der zu untersuchenden Substanzen wurde orientierend an Gruppen von je […] Mäusen nach oraler Gabe einer Einzeldosis bestimmt (Beobachtungszeit: 14 Tage) : […]

Row | Compound | IC50 [1] [µmol/L] | IC50 [2] [µmol/L] | Orientierende aktute Toxizität (Tiere gestorben) (Mäusen) [von 5] | Orientierende aktute Toxizität (Mäusen) [mg]
1 | c1ccc(-c2nc3c(N4CCOCC4)nc(N4CCNCC4)nc3nc2N2CCOCC2)cc1 [A, 4,7-Dimorpholino-6-phenyl-2-piperazino-pteridin] | 0.54 | 4.3 | 0 | > 250
2 | c1ccc(CNc2nc3nc(N4CCNCC4)nc(N4CCSCC4)c3nc2-c2ccccc2)cc1 [C, 7-Benzylamino-6-phenyl-2-piperazino-4-thiomorpholino-pteridin] | 0.5 | 0.096 | 0 | > 250
3 | CN(CCO)c1nc(N2CCNCC2)nc2nc(NCc3ccccc3)cnc12 [E, 7-Benzylamino-4-(N-methyl-2'-hydroxyethylamino)-2-piperazino-pteridin] | 3.7 | 8.3 | 0 | > 250
4 | [O-][S+]1CCN(c2nc3nc(N4CCNCC4)nc(N4CCOCC4)c3nc2-c2ccccc2)CC1 [B, 4-Morpholino-7-(1-oxidothiomorpholino)-2-piperazino-6-phenyl-pteridin] | 2.2 | 3.1 |  | 
5 | CN(C)c1nc2nc(N3CCNCC3)nc(N3CCCC3)c2nc1-c1ccccc1 [D, 7-Dimethylamino-6-phenyl-2-piperazino-4-pyrrolidino-pteridin] | 3.6 | 0.78 | 0 | > 250

— patent EP0185259A2, “Pteridines, process for their preparation, and their use as intermediates or as medicaments” (Dr. Karl Thomae GmbH, priority 1984, dated 1986)
